Laboratory results taken from the supplement of paper PMC10627819.

Tests used:
Conditions in all cases: main component drawn
S. aureus Newman [1] = test: fitness (endpoint OD595 vs no drug) (fraction); higher = more growth
In short: (§1)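 Cultures at OD595 0.01 were dispensed into 384-well plates in TSB, LB Lennox or CY and incubated at 37 °C. Every 30 min for 14 h, OD595 was read and corrected by the first reading. Fitness is the optical density at entry into stationary phase relative to the robust mean of no-drug control wells, capped at 1.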

S. aureus DSM 20231 = test: Bliss interaction score (quartile over a dose matrix) (fitness difference); higher = more antagonism (negative = synergy)
In short: (§2)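 Fitness is OD595 at stationary-phase entry relative to the plate's robust no-drug mean, capped at 1. Single-drug fitness was inferred from combinations. The Bliss score is observed minus product-expected fitness, summarised by quartiles over technical, biological and donor/recipient replicates.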

S. aureus Newman [2] = test: as above
In short: as §2

S. pneumoniae D39V = test: as above
In short: as §2

B. subtilis 168 [3] = test: as above
In short: as §2

B. subtilis 168 [4] = test: fitness (endpoint OD595 vs no drug) (fraction); higher = more growth
In short: as §1
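Wherever Bliss interaction score (quartile over a dose matrix) is given: first quartile when negative (synergy) and third quartile when positive (antagonism).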

CC[C@H](C)[C@H](N)C1=N[C@H](C(=O)N[C@@H](CC(C)C)C(=O)N[C@H](CCC(=O)O)C(=O)N[C@H](C(=O)N[C@H]2CCCCNC(=O)[C@H](CC(N)=O)NC(=O)[C@@H](CC(=O)O)NC(=O)[C@H](Cc3cnc[nH]3)NC(=O)[C@@H](Cc3ccccc3)NC(=O)[C@H]([C@@H](C)CC)NC(=O)[C@@H](CCCN)NC2=O)[C@@H](C)CC)CS1 [Bacitracin] + C/C(=C\C(=O)OCCCCCCCCC(=O)O)C[C@@H]1OC[C@H](C[C@@H]2O[C@H]2[C@@H](C)[C@H](C)O)[C@@H](O)[C@H]1O [Pseudomonic acid]
fitness, S. aureus Newman [1], one replicate
Conditions | first compound 18.75 µg/mL | first compound 37.5 µg/mL | first compound 75 µg/mL
partner 0.0313 µg/mL | 0.0438 | 0.029 | 0.0257
partner 0.0625 µg/mL | 0.0196 | 0.0219 | 0.0077
partner 0.125 µg/mL | 0.0416 | 0.0193 | 0.0115

Conditions | Bliss interaction score
B. subtilis 168 [3] | -0.0784
S. aureus DSM 20231 | 0.0189
S. aureus Newman [2] | 0.0307
S. pneumoniae D39V | -0.0953

CC[C@H](C)[C@H](N)C1=N[C@H](C(=O)N[C@@H](CC(C)C)C(=O)N[C@H](CCC(=O)O)C(=O)N[C@H](C(=O)N[C@H]2CCCCNC(=O)[C@H](CC(N)=O)NC(=O)[C@@H](CC(=O)O)NC(=O)[C@H](Cc3cnc[nH]3)NC(=O)[C@@H](Cc3ccccc3)NC(=O)[C@H]([C@@H](C)CC)NC(=O)[C@@H](CCCN)NC2=O)[C@@H](C)CC)CS1 [Bacitracin] + CC1=C(C(=O)O)N2C(=O)[C@@H](NC(=O)[C@H](N)c3ccccc3)[C@H]2SC1 [Cephalexin]
fitness
Conditions | partner 0.125 µg/mL | partner 0.25 µg/mL | partner 0.5 µg/mL | partner 1 µg/mL
B. subtilis 168 [4], first compound 37.5 µg/mL | 0.922 | 0.824 | 0.838 | –
B. subtilis 168 [4], first compound 75 µg/mL | 0.884 | 0.869 | 0.904 | –
B. subtilis 168 [4], first compound 150 µg/mL | 0.72 | – | – | –
S. aureus Newman [1], first compound 18.75 µg/mL | – | 0.798 | 0.785 | 0.791
S. aureus Newman [1], first compound 75 µg/mL | – | 0.0499 | 0.0405 | 0.045

B. subtilis 168 [4], partner 1 µg/mL, one replicate
Conditions | fitness
first compound 37.5 µg/mL | 0.874
first compound 75 µg/mL | 0.886
first compound 150 µg/mL | 0.53

Conditions | Bliss interaction score
B. subtilis 168 [3] | 0.0854
S. aureus DSM 20231 | 0.0487
S. aureus Newman [2] | 0.129
S. pneumoniae D39V | -0.0987

CC[C@H](C)[C@H](N)C1=N[C@H](C(=O)N[C@@H](CC(C)C)C(=O)N[C@H](CCC(=O)O)C(=O)N[C@H](C(=O)N[C@H]2CCCCNC(=O)[C@H](CC(N)=O)NC(=O)[C@@H](CC(=O)O)NC(=O)[C@H](Cc3cnc[nH]3)NC(=O)[C@@H](Cc3ccccc3)NC(=O)[C@H]([C@@H](C)CC)NC(=O)[C@@H](CCCN)NC2=O)[C@@H](C)CC)CS1 [Bacitracin] + CCCCCCCCCC(=O)N[C@@H]1[C@H]([C@@H]([C@H](O[C@H]1OC2=C3C=C4C=C2OC5=C(C=C(C=C5)[C@H]([C@H]6C(=O)N[C@@H](C7=C(C(=CC(=C7)O)OC8[C@H]([C@H]([C@@H]([C@H](O8)CO)O)O)O)C9=C(C=CC(=C9)[C@H](C(=O)N6)NC(=O)[C@@H]4NC(=O)[C@@H]1C2=CC(=CC(=C2)OC2=C(C=CC(=C2)[C@H](C(=O)N[C@H](CC2=CC(=C(O3)C=C2)Cl)C(=O)N1)N)O)O)O)C(=O)O)O[C@H]1[C@@H]([C@H]([C@@H]([C@H](O1)CO)O)O)NC(=O)C)Cl)CO)O)O [Teicoplanin]
fitness, S. aureus Newman [1]
Conditions | first compound 18.75 µg/mL | first compound 37.5 µg/mL | first compound 75 µg/mL
partner 0.1562 µg/mL | 0.777 | 0.249 | 0.0017
partner 0.3125 µg/mL | 0.77 | 0.202 | 0.0042
partner 0.625 µg/mL | 0.683 | 0.206 | 0

fitness, S. aureus Newman [1], one replicate
Conditions | first compound 18.75 µg/mL | first compound 37.5 µg/mL | first compound 75 µg/mL
partner 0.62 µg/mL | 0.543 | 0.0346 | 0.0093
partner 1.24 µg/mL | 0.424 | 0.0167 | 0.0003
partner 2.48 µg/mL | 0.0859 | 0.0387 | 0.0349

Conditions | Bliss interaction score
B. subtilis 168 [3] | -0.119
S. aureus DSM 20231 | -0.0716
S. aureus Newman [2] | 0.0565
S. pneumoniae D39V | -0.0678

CC[C@H](C)[C@H](N)C1=N[C@H](C(=O)N[C@@H](CC(C)C)C(=O)N[C@H](CCC(=O)O)C(=O)N[C@H](C(=O)N[C@H]2CCCCNC(=O)[C@H](CC(N)=O)NC(=O)[C@@H](CC(=O)O)NC(=O)[C@H](Cc3cnc[nH]3)NC(=O)[C@@H](Cc3ccccc3)NC(=O)[C@H]([C@@H](C)CC)NC(=O)[C@@H](CCCN)NC2=O)[C@@H](C)CC)CS1 [Bacitracin] + CN[C@H](CC(C)C)C(=O)N[C@H]1C(=O)N[C@@H](CC(N)=O)C(=O)N[C@H]2C(=O)N[C@H]3C(=O)N[C@H](C(=O)N[C@H](C(=O)O)c4cc(O)cc(O)c4-c4cc3ccc4O)[C@H](O)c3ccc(c(Cl)c3)Oc3cc2cc(c3O[C@@H]2O[C@H](CO)[C@@H](O)[C@H](O)[C@H]2O[C@H]2C[C@](C)(N)[C@H](O)[C@H](C)O2)Oc2ccc(cc2Cl)[C@H]1O [Vancomycin]
fitness, S. aureus Newman [1]
Conditions | first compound 18.75 µg/mL | first compound 37.5 µg/mL | first compound 75 µg/mL
partner 0.1875 µg/mL | 0.735 | 0.183 | 0.0338
partner 0.375 µg/mL | 0.723 | 0.135 | 0.0309
partner 0.75 µg/mL | 0.712 | 0.159 | 0.0262

Conditions | Bliss interaction score
B. subtilis 168 [3] | 0.0708
S. aureus DSM 20231 | 0.0843
S. aureus Newman [2] | -0.0422
S. pneumoniae D39V | -0.0651

CC[C@H](C)[C@H](N)C1=N[C@H](C(=O)N[C@@H](CC(C)C)C(=O)N[C@H](CCC(=O)O)C(=O)N[C@H](C(=O)N[C@H]2CCCCNC(=O)[C@H](CC(N)=O)NC(=O)[C@@H](CC(=O)O)NC(=O)[C@H](Cc3cnc[nH]3)NC(=O)[C@@H](Cc3ccccc3)NC(=O)[C@H]([C@@H](C)CC)NC(=O)[C@@H](CCCN)NC2=O)[C@@H](C)CC)CS1 [Bacitracin] + CO/N=C(\C(=O)N[C@@H]1C(=O)N2C(C(=O)[O-])=C(C[N+]3(C)CCCC3)CS[C@H]12)c1csc(N)n1 [Cefepime]
fitness, S. aureus Newman [1]
Conditions | first compound 18.75 µg/mL | first compound 37.5 µg/mL | first compound 75 µg/mL
partner 0.125 µg/mL | 0.699 | – | 0.0274
partner 0.25 µg/mL | 0.634 | – | 0.0298
partner 0.5 µg/mL | – | 0.0986 | 0.0408

Conditions | Bliss interaction score
B. subtilis 168 [3] | -0.124
S. aureus DSM 20231 | 0.0889
S. aureus Newman [2] | -0.0863
S. pneumoniae D39V | -0.144
